± gives the expanded uncertainty stated by the source.
Experiment: molar enthalpy of vaporization or sublimation
Details: 298.15 K, Calvet microcalorimetry

Structure (SMILES)	molar enthalpy (Liquid)	molar enthalpy (Crystal)
Cn1ccc2ccccc21 [1-methylindole]	14.9 ± 0.765 kcal/mol	
Cc1cc2ccccc2[nH]1 [2-methylindole]		21.2 ± 1.15 kcal/mol
Cc1c[nH]c2ccccc12 [3-methyl-1H-indole]		21.6 ± 0.908 kcal/mol
